Assay results published in patent publication US12428406B2 (PMV Pharmaceuticals, Inc., priority 2019, dated 2025).

Biological target: T1, p53 Y220C (Homo sapiens, UniProt P04637, Y220C)
T1 construct: The recombinant protein was a truncation mutant containing only amino acids 94-312 of p53; made in house; host or cells: E. coli
Assay: In vitro DNA binding activity assay (HTRF / TR-FRET): stabilization of p53 Y220C and increase of its DNA binding activity
Type: biochemical
Details: recombinant His-tagged p53 Y220C DNA binding domain (aa 94-312), biotin-labeled consensus DNA, incubated at 27° C. or 29° C. for 60 min
In short: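 Homogeneous time-resolved fluorescence with E. coli-derived p53 Y220C and biotinylated consensus DNA. Room-temperature incubations of 15 and 20 min precede reading. SC150 denotes the compound concentration required for 50% increased DNA binding.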

T1 sequence (P04637 94-312, change not shown): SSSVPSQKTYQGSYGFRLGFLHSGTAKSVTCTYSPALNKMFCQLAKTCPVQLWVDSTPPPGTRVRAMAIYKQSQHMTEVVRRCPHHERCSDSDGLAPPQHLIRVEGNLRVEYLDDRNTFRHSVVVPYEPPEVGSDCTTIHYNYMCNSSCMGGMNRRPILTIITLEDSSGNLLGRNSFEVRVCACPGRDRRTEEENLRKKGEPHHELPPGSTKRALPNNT

Structure (SMILES)	SC150 (concentration of the compound required to increase the DNA binding activity by 50%)
CC(O)CN1CCC(Nc2cccc3c2cc(C#CCNc2ccc(S(C)(=O)=O)cc2OCC#N)n3CC(F)(F)F)CC1 (stereo not shown) [Compound 661A, 2-(2-{[3-(4-{[1-(2-hydroxypropyl)piperidin-4-yl]amino}-1-(2,2,2-trifluoroethyl)-1H-indol-2-yl)prop-2-yn-1-yl]amino}-5-methanesulfonylphenoxy)acetonitrile]	+ (+ = 0 μM ≤ SC150 < 0.05 μM)
CCS(=O)(=O)c1ccc(NCC#Cc2cc3c(NC4CCN(CC(O)COC)CC4)cccc3n2CC(F)(F)F)c(OC)c1 (stereo not shown) [Compound 662A, 1-(4-{[2-(3-{[4-(ethanesulfonyl)-2-methoxyphenyl]amino}prop-1-yn-1-yl)-1-(2,2,2-trifluoroethyl)-1H-indol-4-yl]amino}piperidin-1-yl)-3-methoxypropan-2-ol]	+ (+ = 0 μM ≤ SC150 < 0.05 μM)
CNC(=O)c1ccc(NCC#Cc2cc3c(NC4CCN(CC(O)COC)CC4)cccc3n2CC(F)(F)F)c(OCF)c1 (stereo not shown) [Compound 663A, 3-(fluoromethoxy)-4-{[3-(4-{[1-(2-hydroxy-3-methoxypropyl)piperidin-4-yl]amino}-1-(2,2,2-trifluoroethyl)-1H-indol-2-yl)prop-2-yn-1-yl]amino}-N-methylbenzamide]	+ (+ = 0 μM ≤ SC150 < 0.05 μM)
COCC(O)CN1CCC(Nc2cccc3c2cc(C#CCNc2ccc(S(C)(=O)=O)cc2OCF)n3CC(F)(F)F)CC1 (stereo not shown) [Compound 664A, 1-(4-{[2-(3-{[2-(fluoromethoxy)-4-methanesulfonylphenyl]amino}prop-1-yn-1-yl)-1-(2,2,2-trifluoroethyl)-1H-indol-4-yl]amino}piperidin-1-yl)-3-methoxypropan-2-ol]	+ (+ = 0 μM ≤ SC150 < 0.05 μM)
COCC(O)CN1CCC(Nc2cccc3c2cc(C#CCNc2ccc(C(C)(C)C#N)cc2OC)n3CC(F)(F)F)CC1 (stereo not shown) [Compound 665A, 2-(4-{[3-(4-{[1-(2-hydroxy-3-methoxypropyl)piperidin-4-yl]amino}-1-(2,2,2-trifluoroethyl)-1H-indol-2-yl)prop-2-yn-1-yl]amino}-3-methoxyphenyl)-2-methylpropanenitrile]	+ (+ = 0 μM ≤ SC150 < 0.05 μM)
COC[C@@H](O)CN1CCC(Nc2cccc3c2cc(C#CCNc2ccc(S(C)(=O)=O)cc2OCF)n3CC(F)(F)F)CC1 [Compound 666A, (2S)-1-(4-{[2-(3-{[2-(fluoromethoxy)-4-methanesulfonylphenyl]amino}prop-1-yn-1-yl)-1-(2,2,2-trifluoroethyl)-1H-indol-4-yl]amino}piperidin-1-yl)-3-methoxypropan-2-ol]	+ (+ = 0 μM ≤ SC150 < 0.05 μM)
COC[C@H](O)CN1CCC(Nc2cccc3c2cc(C#CCNc2ccc(S(C)(=O)=O)cc2OCF)n3CC(F)(F)F)CC1 [Compound 667A, (2R)-1-(4-{[2-(3-{[2-(fluoromethoxy)-4-methanesulfonylphenyl]amino}prop-1-yn-1-yl)-1-(2,2,2-trifluoroethyl)-1H-indol-4-yl]amino}piperidin-1-yl)-3-methoxypropan-2-ol]	+ (+ = 0 μM ≤ SC150 < 0.05 μM)
COCC(O)CN1CCC(Nc2cccc3c2cc(C#CCNc2ccc(S(C)(=O)=O)cc2OC(F)F)n3CC(F)(F)F)CC1 (stereo not shown) [Compound 668A, 1-(4-{[2-(3-{[2-(difluoromethoxy)-4-methanesulfonylphenyl]amino}prop-1-yn-1-yl)-1-(2,2,2-trifluoroethyl)-1H-indol-4-yl]amino}piperidin-1-yl)-3-methoxypropan-2-ol]	+ (+ = 0 μM ≤ SC150 < 0.05 μM)
COc1cc(S(C)(=O)=O)ccc1NCC#Cc1cc2c(NC3CCN(CC(O)COCC(O)CO)CC3)cccc2n1CC(F)(F)F (stereo not shown) [Compound 669A, 3-(2-hydroxy-3-{4-[(2-{3-[(4-methanesulfonyl-2-methoxyphenyl)amino]prop-1-yn-1-yl}-1-(2,2,2-trifluoroethyl)-1H-indol-4-yl)amino]piperidin-1-yl}propoxy)propane-1,2-diol]	+ (+ = 0 μM ≤ SC150 < 0.05 μM)
COCC(O)CN1CCC(Nc2cccc3c2cc(C#CCNc2cc(S(C)(=O)=O)ccc2OC)n3CC(F)(F)F)CC1 (stereo not shown) [Compound 670A, 1-{4-[(2-{3-[(5-methanesulfonyl-2-methoxyphenyl)amino]prop-1-yn-1-yl}-1-(2,2,2-trifluoroethyl)-1H-indol-4-yl)amino]piperidin-1-yl}-3-methoxypropan-2-ol]	++++ (++++ = 0.2 μM ≤ SC150 < 1 μM)
COCC(O)CN1CCC(Nc2cccc3c2cc(C#CCNc2ccc(S(C)(=O)=O)cc2)n3CC(F)(F)F)CC1 (stereo not shown) [Compound 672A, 1-{4-[(2-{3-[(4-methanesulfonylphenyl)amino]prop-1-yn-1-yl}-1-(2,2,2-trifluoroethyl)-1H-indol-4-yl)amino]piperidin-1-yl}-3-methoxypropan-2-ol]	+ (+ = 0 μM ≤ SC150 < 0.05 μM)
COc1cc(S(C)(=O)=O)ccc1NCC#Cc1cc2c(NC3CCN(CC(O)COCC(F)(F)F)CC3)cccc2n1CC(F)(F)F (stereo not shown) [Compound 673A, 1-{4-[(2-{3-[(4-methanesulfonyl-2-methoxyphenyl)amino]prop-1-yn-1-yl}-1-(2,2,2-trifluoroethyl)-1H-indol-4-yl)amino]piperidin-1-yl}-3-(2,2,2-trifluoroethoxy)propan-2-ol]	+ (+ = 0 μM ≤ SC150 < 0.05 μM)
COc1cc(S(C)(=O)=O)ccc1NCC#Cc1cc2c(NC3CC[N+]4(CC3)COCC(O)C4)cccc2n1CC(F)(F)F (stereo not shown) [Compound 674A, 4-hydroxy-9-[(2-{3-[(4-methanesulfonyl-2-methoxyphenyl)amino]prop-1-yn-1-yl}-1-(2,2,2-trifluoroethyl)-1H-indol-4-yl)amino]-2-oxa-6λ^5-azaspiro[5.5]undecan-6-ylium]	+ (+ = 0 μM ≤ SC150 < 0.05 μM)
COCCCN1CCC(Nc2cccc3c2cc(C#CCNc2ccc(S(C)(=O)=O)cc2OC)n3CC(F)(F)F)CC1 [Compound 675A, 2-{3-[(4-methanesulfonyl-2-methoxyphenyl)amino]prop-1-yn-1-yl}-N-[1-(3-methoxypropyl)piperidin-4-yl]-1-(2,2,2-trifluoroethyl)-1H-indol-4-amine]	+ (+ = 0 μM ≤ SC150 < 0.05 μM)
COCC(O)CN1CCC(Nc2cccc3c2c(C)c(C#CCNc2ccc(S(C)(=O)=O)cc2OC)n3CC(F)(F)F)CC1 (stereo not shown) [Compound 676A, 1-{4-[(2-{3-[(4-methanesulfonyl-2-methoxyphenyl)amino]prop-1-yn-1-yl}-3-methyl-1-(2,2,2-trifluoroethyl)-1H-indol-4-yl)amino]piperidin-1-yl}-3-methoxypropan-2-ol]	+++ (+++ = 0.1 μM ≤ SC150 < 0.2 μM)
COCC(O)CN1CCC(Nc2cccc3c2cc(C#CCNc2cc(F)c(S(C)(=O)=O)cc2OC)n3CC(F)(F)F)CC1 (stereo not shown) [Compound 677A, 1-{4-[(2-{3-[(5-fluoro-4-methanesulfonyl-2-methoxyphenyl)amino]prop-1-yn-1-yl}-1-(2,2,2-trifluoroethyl)-1H-indol-4-yl)amino]piperidin-1-yl}-3-methoxypropan-2-ol]	+ (+ = 0 μM ≤ SC150 < 0.05 μM)
COc1cc(S(C)(=O)=O)ccc1NCC#Cc1cc2c(NC3CCN(C4COC4)CC3)cccc2n1CC(F)(F)F [Compound 678A, 2-{3-[(4-methanesulfonyl-2-methoxyphenyl)amino]prop-1-yn-1-yl}-N-[1-(oxetan-3-yl)piperidin-4-yl]-1-(2,2,2-trifluoroethyl)-1H-indol-4-amine]	+ (+ = 0 μM ≤ SC150 < 0.05 μM)
COCC(O)CN1CCC(Nc2cccc3c2cc(C#CCNc2cc(F)c(C(N)=O)cc2OC)n3CC(F)(F)F)CC1 (stereo not shown) [Compound 683A, 2-fluoro-4-{[3-(4-{[1-(2-hydroxy-3-methoxypropyl)piperidin-4-yl]amino}-1-(2,2,2-trifluoroethyl)-1H-indol-2-yl)prop-2-yn-1-yl]amino}-5-methoxybenzamide]	+ (+ = 0 μM ≤ SC150 < 0.05 μM)
COCC(O)CN1CCC(Nc2cccc3c2cc(C#CCNc2ccc(S(=O)(=O)C4CC4)cc2OC)n3CC(F)(F)F)CC1 (stereo not shown) [Compound 685A, 1-(4-{[2-(3-{[4-(cyclopropanesulfonyl)-2-methoxyphenyl]amino}prop-1-yn-1-yl)-1-(2,2,2-trifluoroethyl)-1H-indol-4-yl]amino}piperidin-1-yl)-3-methoxypropan-2-ol]	+ (+ = 0 μM ≤ SC150 < 0.05 μM)
COc1cc(S(C)(=O)=O)ccc1NCC#Cc1cc2c(NC3CCN(CCC#N)CC3)cccc2n1CC(F)(F)F [Compound 686A]	+ (+ = 0 μM ≤ SC150 < 0.05 μM)
COc1cc(S(C)(=O)=O)ccc1NCC#Cc1cc2c(NC3CCN(CC4CCCO4)CC3)cccc2n1CC(F)(F)F (stereo not shown) [Compound 688A, 2-{3-[(4-methanesulfonyl-2-methoxyphenyl)amino]prop-1-yn-1-yl}-N-{1-[(oxolan-2-yl)methyl]piperidin-4-yl}-1-(2,2,2-trifluoroethyl)-1H-indol-4-amine]	+ (+ = 0 μM ≤ SC150 < 0.05 μM)
COCC(O)CN1CCC(Nc2cccc3c2cc(C#CCNc2ccc(C(F)(F)F)cc2OC)n3CC(F)(F)F)CC1 (stereo not shown) [Compound 689A, 1-methoxy-3-(4-{[2-(3-{[2-methoxy-4-(trifluoromethyl)phenyl]amino}prop-1-yn-1-yl)-1-(2,2,2-trifluoroethyl)-1H-indol-4-yl]amino}piperidin-1-yl)propan-2-ol]	+++ (+++ = 0.1 μM ≤ SC150 < 0.2 μM)
